Article PMC10359459 (Nucleic Acids Research, 2023)

Molecular target: T1, BldD (Saccharopolyspora erythraea, UniProt A4FBF9)
T1 sequence (A4FBF9 1-162): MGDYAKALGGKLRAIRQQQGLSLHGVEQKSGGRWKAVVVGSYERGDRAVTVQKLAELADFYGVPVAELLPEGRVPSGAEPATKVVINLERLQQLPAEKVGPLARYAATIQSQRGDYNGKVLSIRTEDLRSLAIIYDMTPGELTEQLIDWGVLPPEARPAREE
Assay: isothermal titration calorimetry
Type: binding

**Q.** Which Kd does the source give for `Nc1nc2c(ncn2[C@@H]2O[C@@H]3CO[P@](=O)(O)O[C@H]4[C@@H](O)[C@H](n5cnc6c(=O)[nH]c(N)nc65)O[C@@H]4CO[P@](=O)(O)O[C@H]3[C@H]2O)c(=O)[nH]1` [c-di-GMP] here?
**A.** The Kd was 570 nM.
